Results: US6143764A, “Quinoline and quinazoline derivatives inhibiting platelet-derived growth factor receptor autophosphorylation and pharmaceutical compositions containing the same” (priority 1995, dated 2000)

Target: T1, PDGF receptor (Rattus norvegicus, UniProt Q05030)
T1 construct: cultured rat mesangial cells which are known to have the PDGF receptor; endogenous in cells; host or cells: primary mesangial cells cultured from glomeruli of Wistar-Kyoto rats (Charles River Japan), more than 5 passages
Test: PDGF receptor autophosphorylation inhibition in cultured rat mesangial cells
Format: cell-based
Settings: PDGF-BB 50 ng/ml
Protocol: 1. Cultivation of rat mesangial cells
The glomerulus-derived adhesive cells were subcultured several times to obtain mesangial cells. The mesangial cells subcultured more than 5 passages were used for the assay.
2.Evaluation of PDGF receptor autophosphorylation inhibition
The mesangial cells were seeded in 24-well flat-bottom microtiter plates and then cultured in the medium containing 10% FCS for 2 days. When the cells were grown to about 3×10^4 cells per well, the medium was changed to the medium containing 0.5% FCS, the cultivation was continued for another 3 days, and then cell growth was arrested. The culture medium was removed, the adhered cells were washed with 500 μl of the medium, and 250 μl of the medium containing 0.1% bovine serum albumin (hereinafter abbreviated to BSA) was then added. A test drug dissolved in 1.38 μl of dimethyl sulfoxide (hereinafter abbreviated to DMSO) was added to this culture medium, and the admixture was incubated at 37° C. for 1 hour. Recombinant human platelet-derived growth factor BB chain (hereinafter abbreviated to PDGF-BB) was dissolved in the medium containing 0.1% BSA, 25 μl per well of the solution was added at final 50 ng/ml, and the incubation was continued at 37° C. for 10 minutes. […] The cells were allowed to stand at 4° C. for 30 minutes for lysis, and the resulting solution was thoroughly admixed with an equal amount of Tris-buffered physiological saline containing 1% sodium dodecyl sulfate (hereinafter abbreviated to SDS). […] After the electrophoresis, proteins in the gel were electrically transferred to a PVDF filter, which was then subjected to Western blotting using monoclonal antibodies against phosphotyrosine. Bands of PDGF receptor (molecular weight: about 180 Kda) which were autophosphorylated due to the addition of PDGF-BB were quantitated by a densitometer. Autophosphorylation rates for individual wells with drugs were calculated by setting measurements for PDGF receptor autophosphorylation in the wells without drugs in the presence and absence of PDGF-BB as 100% and 0%, respectively.

T1 sequence (Q05030 32-1097): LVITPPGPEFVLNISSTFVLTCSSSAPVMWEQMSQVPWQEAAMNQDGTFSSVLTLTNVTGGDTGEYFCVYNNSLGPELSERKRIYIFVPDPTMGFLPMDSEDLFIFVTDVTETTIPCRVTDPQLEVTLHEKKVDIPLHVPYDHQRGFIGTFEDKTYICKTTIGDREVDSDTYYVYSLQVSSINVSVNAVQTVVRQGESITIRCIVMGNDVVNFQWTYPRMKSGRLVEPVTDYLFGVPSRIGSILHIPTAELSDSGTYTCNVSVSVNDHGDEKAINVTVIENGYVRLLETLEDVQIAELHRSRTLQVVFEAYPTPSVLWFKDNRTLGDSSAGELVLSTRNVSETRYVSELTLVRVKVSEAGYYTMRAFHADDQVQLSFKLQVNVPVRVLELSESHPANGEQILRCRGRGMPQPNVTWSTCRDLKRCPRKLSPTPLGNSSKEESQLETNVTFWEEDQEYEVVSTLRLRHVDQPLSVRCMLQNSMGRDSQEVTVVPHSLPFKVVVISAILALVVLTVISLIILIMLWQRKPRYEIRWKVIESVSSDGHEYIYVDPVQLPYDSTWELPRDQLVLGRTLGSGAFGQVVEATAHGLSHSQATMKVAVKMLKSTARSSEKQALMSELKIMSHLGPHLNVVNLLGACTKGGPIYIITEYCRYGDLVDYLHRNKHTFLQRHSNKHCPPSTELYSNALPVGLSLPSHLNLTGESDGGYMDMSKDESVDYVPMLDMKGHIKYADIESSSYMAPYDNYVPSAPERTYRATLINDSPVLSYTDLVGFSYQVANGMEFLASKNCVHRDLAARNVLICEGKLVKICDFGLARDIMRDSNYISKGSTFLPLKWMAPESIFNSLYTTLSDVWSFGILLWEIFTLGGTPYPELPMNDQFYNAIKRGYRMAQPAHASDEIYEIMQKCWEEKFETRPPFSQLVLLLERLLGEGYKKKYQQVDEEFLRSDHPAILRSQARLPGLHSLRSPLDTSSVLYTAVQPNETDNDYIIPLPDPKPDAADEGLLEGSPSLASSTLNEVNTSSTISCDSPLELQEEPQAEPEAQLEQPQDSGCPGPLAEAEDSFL

Row | IC50 | Structure (SMILES)
1 | 11 nM | COc1cc2nccc(Oc3ccc(NC(=O)Nc4c(C)cccc4Cl)cc3)c2cc1OC [Compound 226, N-(2-Chloro-6-methylphenyl)-N'-{4-[(6,7-dimethoxy-4-quinolyl)oxy]phenyl}urea]
2 | 29 nM | COc1cc2nccc(Oc3ccc(NC(=O)Nc4ccc(Oc5ccc(F)cc5)nc4)cc3)c2cc1OC [Compound 279, N-{5-[2-(4-fluoro)phenoxy]-pyridyl}-N'-(4-[(6,7-dimethoxy-4-quinolyl)oxy]phenyl}urea]
3 | 63 nM | COc1cc2nccc(Oc3ccc(NC(=O)NCc4ccc(C(C)(C)C)cc4)cc3)c2cc1OC [Compound 248, N-[(4-tert-Butylphenyl)methyl]-N'-{4-[(6,7-dimethoxy-4-quinolyl)oxy]phenyl}urea]
4 | 5 nM | CCCCNC(=O)Nc1ccc(Oc2ccnc3cc(OC)c(OC)cc23)cc1 [Compound 139, N-n-Butyl-N'-{4-[(6,7-dimethoxy-4-quinolyl)oxy]phenyl}urea]
5 | 41 nM | COc1cc2nccc(Oc3ccc(NC(=O)NCc4cccnc4)cc3)c2cc1OC [Compound 249, N-(4-[(6,7-Dimethoxy-4-quinolyl)oxy]phenyl)-N'-(3-pyridylmethyl) urea]
6 | 5 nM | COc1ccc(NC(=O)Nc2ccc(Oc3ccnc4cc(OC)c(OC)cc34)cc2)c(OC)c1 [Compound 265, N-(2,4-Dimethoxyphenyl)-N'-{4-[(6,7-dimethoxy-4-quinolyl)oxy]phenyl}urea]
7 | 4 nM | COc1cc2nccc(Oc3ccc(NC(=O)Nc4cc(OC)c(OC)c(OC)c4)cc3)c2cc1OC [Compound 271, N-(3,4,5-Trimethoxyphenyl)-N'-{4-[(6,7-dimethoxy-4-quinolyl)oxy]phenyl}urea]
8 | 32 nM | COc1cc2nccc(Oc3ccc(C(=O)c4ccc(N5CCCC5)cc4)cc3)c2cc1OC [Compound 289, (4-[{6,7-Dimethoxy-4-quinolyl)oxy]phenyl)[4-pyrrolidinophenyl]methanone]
9 | 13 nM | CCOC(=O)c1cccc(NC(=O)Nc2ccc(Oc3ccnc4cc(OC)c(OC)cc34)cc2)c1 [Compound 233, N-(3-Ethoxycarbonylphenyl)-N'-{4-[(6,7-dimethoxy-4-quinolyl)oxy]phenyl}urea]
10 | 450 nM | COc1cc2nccc(Oc3cccc(C(C)=O)c3)c2cc1OC [Compound 6]
11 | 7 nM | COc1cc2nccc(Oc3ccc(NC(=O)Nc4ccc(F)c(F)c4F)cc3)c2cc1OC [Compound 257, N-(2,3,4-Trifluorophenyl)-N'-{4-[(6,7-dimethoxy-4-quinolyl)oxy]phenyl}urea]
12 | 21 nM | COc1cc2nccc(Oc3ccc(NC(=O)Nc4ccc([N+](=O)[O-])cc4)cc3)c2cc1OC [Compound 46, N-{4-[(6,7-Dimethoxy-4-quinolinyl)oxy]phenyl}-N'-(4-nitrophenyl)urea]
13 | 34 nM | COc1cc2nccc(Oc3ccc(NC(=O)Nc4c(Cl)cccc4Cl)cc3)c2cc1OC [Compound 230, N-(2,6-Dichlorophenyl)-N'-{4-[(6,7-dimethoxy-4-quinolyl)oxy]phenyl}urea]
14 | 4 nM | COc1cc2nccc(Oc3ccc(NC(=O)Nc4ccccc4)cc3)c2cc1OC [Compound 167, N-{4-[(6,7-Dimethoxy-4-quinolyl)oxy]phenyl}-N'-phenylurea]
15 | 8 nM | COc1cc2nccc(Oc3ccc(NC(=O)Nc4ccc(O)cc4)cc3)c2cc1OC [Compound 269, N-(4-Hydroxyphenyl)-N'-{4-[(6,7-dimethoxy-4-quinolyl)oxy]phenyl}urea]
16 | 9 nM | COc1cc2nccc(Oc3ccc(NC(=O)Nc4ccc(C(C)C)cc4)cc3)c2cc1OC [Compound 51, N-(4-Isopropylphenyl)-N'-{4-[(6,7-dimethoxy-4-quinolinyl)oxy]phenyl}urea]

Row | IC50 | Structure (SMILES)
17 | 5 nM | COc1cc(NC(=O)Nc2ccc(Oc3ccnc4cc(OC)c(OC)cc34)cc2)cc(OC)c1 [Compound 259, N-(3,5-Dimethoxyphenyl)-N'-{4-[(6,7-dimethoxy-4-quinolyl)oxy]phenyl}urea]
18 | 11 nM | COc1cc2nccc(Oc3ccc(NC(=O)NC(=O)c4ccccc4)cc3)c2cc1OC [Compound 189, N-Benzoyl-N'-{4-[(6,7-dimethoxy-4-quinolyl)oxy]phenyl}urea]
19 | 3 nM | COc1cc2nccc(Oc3ccc(NC(=O)NCCCCl)cc3)c2cc1OC [Compound 278, N-(3-Chloropropyl)-N'-{4-[(6,7-dimethoxy-4-quinolyl)oxy]phenyl}urea]
20 | 9 nM | COc1cc2nccc(Oc3ccc(NC(=O)NCc4ccccn4)cc3)c2cc1OC [Compound 247, N-(4-[(6,7-Dimethoxy-4-quinolyl)oxy]phenyl)-N'-(2-pyridylmethyl)urea]
21 | 6 nM | COCCCNC(=O)Nc1ccc(Oc2ccnc3cc(OC)c(OC)cc23)cc1 [Compound 245, N-(3-Methoxypropyl)-N'-{4-[(6,7-dimethoxy-4-quinolyl)oxy]phenyl}urea]
22 | 19 nM | COc1cc2nccc(Oc3ccc(NC(=O)NC(C)c4cccc5ccccc45)cc3)c2cc1OC (centres unmarked) [Compound 231, N-{4-[(6,7-dimethoxy-4-quinolyl)oxy]phenyl)-N'-[1-(1-naphthyl)ethyl]urea]
23 | 67 nM | COc1cc2nccc(Oc3ccc(NC(=O)Nc4ccc(Oc5ccccc5)cc4)cc3)c2cc1OC [Compound 50, N-{4-[(6,7-Dimethoxy-4-quinolinyl)oxy]phenyl}-N'-(4-phenoxyphenyl)urea]
24 | 11 nM | COc1ccc(NC(=O)Nc2ccc(Oc3ccnc4cc(OC)c(OC)cc34)cc2)cc1OC [Compound 198, N-(3,4-Dimethoxyphenyl)-N'-{4-[(6,7-dimethoxy-4-quinolyl)oxy]phenyl}urea]
25 | 8 nM | COc1cc2nccc(Oc3ccc(NC(=O)Nc4cccc(O)c4)cc3)c2cc1OC [Compound 282, N-(3-Hydroxyphenyl)-N'-{4-[(6,7-dimethoxy-4-quinolyl)oxy]phenyl}urea]
26 | 5 nM | COc1cc2nccc(Oc3ccc(NC(=O)Nc4ccc(Cl)cc4N)cc3)c2cc1OC [Compound 239, N-(2-Amino-4-chlorophenyl)-N'-{4-[(6,7-dimethoxy-4-quinolyl)oxy]phenyl}urea]
27 | 10 nM | COc1cc2nccc(Oc3ccc(NC(=O)Nc4cccc(C(F)(F)F)c4)cc3)c2cc1OC [Compound 53]
28 | 4 nM | COc1cc2nccc(Oc3ccc(NC(=O)Nc4c(F)cc(F)cc4F)cc3)c2cc1OC [Compound 256, N-(2,4,6-Trifluorophenyl)-N'-{4-[(6,7-dimethoxy-4-quinolyl)oxy]phenyl}urea]
29 | 43 nM | CCCCc1ccc(NC(=O)Nc2ccc(Oc3ccnc4cc(OC)c(OC)cc34)cc2)cc1 [Compound 47, N-(4-Butylphenyl)-N'-{4-[(6,7-dimethoxy-4-quinolinyl)oxy]phenyl}urea]
30 | 3 nM | COc1cc2nccc(Oc3ccc(NC(=O)Nc4cccc(C)c4)cc3)c2cc1OC [Compound 55, N-{4-[(6,7-Dimethoxy-4-quinolyl)oxy]phenyl}-N'-(3-methylphenyl)urea]
31 | 36 nM | COc1cc2nccc(Oc3ccc(NC(=O)NCc4ccc(N(C)C)cc4)cc3)c2cc1OC [Compound 251, N-{4-[(6,7-Dimethoxy-4-quinolyl)oxy]phenyl}-N'-[(4-dimethylaminophenyl)methyl]urea]

Row | Structure (SMILES) | IC50
32 | COc1cc2nccc(Oc3ccc(NC(=O)Nc4ccc(OC(C)=O)cc4)cc3)c2cc1OC [Compound 270, N-(4-Acetoxyphenyl)-N'-{4-[(6,7-dimethoxy-4-quinolyl)oxy]phenyl}urea] | 6 nM
